In publication PMC11358092, “Caspofungin enhances the potency of rifampin against Gram-negative bacteria” (Frontiers in Microbiology, 2024):
Structures can show the parent of a compound that is named as a salt.

Test system: E. coli MG1655
Experiment: High-throughput screening of FDA-approved drug library for antibiotic adjuvants (growth inhibition, OD600)
Type: cell-based, Escherichia coli
Conditions: library drug alone, LB medium, 96-well, 8 h static culture at 37°C, relative to PMBN (positive) and DMSO (negative) controls, %, table head prints no unit
Description: To screen for antibiotic adjuvants against GNB, […] library drugs or polymyxin B nonapeptide (PMBN, positive control) or dimethyl sulfoxide (DMSO, negative control). After 8 h of static culture at 37°C, the optical density at 600 nm (OD600) was measured using a microplate reader. Percentage inhibition was calculated as (ODN – ODX)/(ODN – ODP) × 100%, where ODX is the OD600 value for a test treated with drug X, and ODP and ODN are the OD600 values for the positive and negative control, respectively.

Row | Compound | Growth inhibition, Compound [%]
1 | CS(=O)(=O)c1ccc([C@@H](O)[C@@H](CF)NC(=O)C(Cl)Cl)cc1 [Florfenicol] | 116
2 | CCN1CCN(C(=O)N[C@@H](C(=O)N[C@@H]2C(=O)N3[C@@H]2SC(C)(C)[C@@H]3C(=O)O)c2ccccc2)C(=O)C1=O [piperacillin] | 107
3 | CC1(C)S[C@@H]2[C@H](NC(=O)[C@H](NC(=O)N3CCNC3=O)c3ccccc3)C(=O)N2[C@H]1C(=O)O [Azlocillin sodium] | 94
4 | NC(=O)[C@@H]1CC[C@@H]2CN1C(=O)N2OS(=O)(=O)O [Avibactam sodium] | 46
5 | [H]/N=C(/NCCCCC)N/N=C/c1c[nH]c2ccc(OC)cc12 [Tegaserod maleate] | 85
6 | Cc1c(-c2ccccc2)oc2c(C(=O)OCCN3CCCCC3)cccc2c1=O [Flavoxate hydrochloride] | 95
7 | CO[C@H]1/C=C/O[C@@]2(C)Oc3c(C)c(O)c4c([O-])c(cc(O)c4c3C2=O)NC(=O)/C(C)=C\C=C\[C@H](C)[C@H](O)[C@@H](C)[C@@H](O)[C@@H](C)[C@H](OC(C)=O)[C@@H]1C.[Na+] [Rifamycin sodium salt] | 25
8 | CO/N=C1\C[C@]2(C[C@@H]3C[C@@H](C/C=C(\C)C[C@@H](C)/C=C/C=C4\CO[C@@H]5[C@H](O)C(C)=C[C@@H](C(=O)O3)[C@]45O)O2)O[C@H](/C(C)=C/C(C)C)[C@H]1C [Moxidectin] | 32
9 | Cc1cc(O)c(C(=O)N[C@@H](C(=O)N[C@@H]2C(=O)N3C(C(=O)O)=C(CSc4nnnn4C)CS[C@H]23)c2ccc(O)cc2)cn1 [Cefpiramide acid] | 97
10 | CO/N=C(\C(=O)N[C@@H]1C(=O)N2C(C(=O)O)=C(C[N+]3(C)CCCC3)CS[C@H]12)c1csc(N)n1 [Cefepime Dihydrochloride Monohydrate] | 83
11 | Cc1cc(C2CCCCC2)n(O)c(=O)c1 [Ciclopirox] | 70
12 | O=C(Nc1ccc([N+](=O)[O-])cc1Cl)c1cc(Cl)ccc1O [Niclosamide] | 45
13 | Cc1nnc(SCC2=C(C(=O)O)N3C(=O)[C@@H](NC(=O)Cn4cnnn4)[C@H]3SC2)s1 [Cefazolin sodium salt] | 90
14 | CO/N=C(\C(=O)N[C@@H]1C(=O)N2C(C(=O)O)=C(CSc3nc(=O)c(=O)[nH]n3C)CS[C@H]12)c1csc(N)n1 [Ceftriaxone sodium] | 114
15 | CN1C[C@@H]2C[C@H]1CN2c1cc2c(cc1F)c(=O)c(C(=O)O)cn2C1CC1.CS(=O)(=O)O [Danofloxacin mesylate] | 100
16 | CN(C)CCn1nnnc1SCC1=C(C(=O)O)N2C(=O)[C@@H](NC(=O)Cc3csc(N)n3)[C@H]2SC1 [Cefotiam hydrochloride] | 105
17 | CC(OC(=O)OC1CCCCC1)OC(=O)C1=C(CSc2nnnn2CCN(C)C)CS[C@@H]2[C@H](NC(=O)Cc3csc(N)n3)C(=O)N12.Cl.Cl (stereo partly drawn) [Cefotiam Hexetil Hydrochloride] | 87
18 | CO/N=C(\C(=O)N[C@@H]1C(=O)N2C(C(=O)O)=C(CSc3nnnn3C)CS[C@H]12)c1csc(N)n1.CO/N=C(\C(=O)N[C@@H]1C(=O)N2C(C(=O)O)=C(CSc3nnnn3C)CS[C@H]12)c1csc(N)n1.Cl [Cefmenoxime hydrochloride] | 96
19 | [H]/N=C(/N)N[C@H]1[C@H](O)[C@@H](O)[C@H](O[C@@H]2O[C@@H](C)[C@](O)(C=O)[C@H]2O[C@@H]2O[C@@H](CO)[C@H](O)[C@@H](O)[C@@H]2NC)[C@@H](N/C(N)=N\[H])[C@@H]1O [Streptomycin sulfate] | 109
20 | CN[C@@H]1[C@@H](O)[C@@H](O[C@@H]2[C@@H](O)[C@H](O[C@H]3O[C@H](CN)[C@@H](O)[C@H](O)[C@H]3O)[C@@H](N)C[C@H]2NC(=O)[C@@H](O)CN)OC[C@]1(C)O [Isepamicin sulfate] | 108
21 | O=c1[nH]c(=O)n([C@H]2C[C@H](O)[C@@H](CO)O2)cc1C(F)(F)F [Trifluridine] | 27
22 | CC(=O)Nc1ncc([N+](=O)[O-])s1 [Nithiamide] | 87
23 | CO/N=C(\C(=O)N[C@@H]1C(=O)N2C(C(=O)O)=C(COC(C)=O)CS[C@H]12)c1csc(N)n1 [Cefotaxime sodium] | 99
24 | CCN[C@@H]1C[C@H](N)[C@@H](O[C@H]2OC(CN)=CC[C@H]2N)[C@H](O)[C@H]1O[C@H]1OC[C@](C)(O)[C@H](NC)[C@H]1O.CCN[C@@H]1C[C@H](N)[C@@H](O[C@H]2OC(CN)=CC[C@H]2N)[C@H](O)[C@H]1O[C@H]1OC[C@](C)(O)[C@H](NC)[C@H]1O.O=S(=O)(O)O.O=S(=O)(O)O.O=S(=O)(O)O.O=S(=O)(O)O.O=S(=O)(O)O [Netilmicin sulfate] | 109
25 | [H]/N=C(\N/C(=N/[H])NCCCCCCNC(=N)NC(=N)Nc1ccc(Cl)cc1)Nc1ccc(Cl)cc1 [Chlorhexidine] | 101
26 | CC1CCc2c(N3CCC(O)CC3)c(F)cc3c(=O)c(C(=O)O)cn1c23 (stereo not drawn) [Nadifloxacin] | 110

Row | Compound | Growth inhibition, Compound [%]
27 | CC(C)(C)C(=O)OCOC(=O)[C@@H]1N2C(=O)[C@@H](/N=C/N3CCCCCC3)[C@H]2SC1(C)C [Pivmecillinam hydrochloride] | 72
28 | CO[C@H]1/C=C/O[C@@]2(C)Oc3c(C)c(O)c4c(c3C2=O)C2=NC3(CCN(CC(C)C)CC3)NC2=C(NC(=O)/C(C)=C\C=C\[C@H](C)[C@H](O)[C@@H](C)[C@@H](O)[C@@H](C)[C@H](OC(C)=O)[C@@H]1C)C4=O [Rifabutin] | 94
29 | CC1(C)S[C@@H]2[C@H](NC(=O)Cc3ccccc3)C(=O)N2[C@H]1C(=O)O [Benzylpenicillin potassium] | 55
30 | [H]/N=C(\N/C(=N/[H])NCCCCCCNC(=N)NC(=N)Nc1ccc(Cl)cc1)Nc1ccc(Cl)cc1 [Chlorhexidine Acetate] | 103
31 | Cc1cc(C2CCCCC2)n(O)c(=O)c1.NCCO [Ciclopirox ethanolamine] | 114
32 | CCN1CCN(C(=O)N[C@@H](C(=O)N[C@@H]2C(=O)N3C(C(=O)O)=C(CSc4nnnn4C)CS[C@H]23)c2ccc(O)cc2)C(=O)C1=O [Cefoperazone] | 100
33 | C=CC1=C(C(=O)O)N2C(=O)[C@@H](NC(=O)/C(=N\O)c3csc(N)n3)[C@H]2SC1 [Cefdinir] | 100
34 | Cl.NC1CCN(c2nc3c(cc2F)c(=O)c(C(=O)O)cn3-c2ccc(F)cc2F)C1 (stereo not drawn) [Tosufloxacin hydrochloride] | 103
35 | CC[C@H]1OC(=O)[C@H](C)[C@@H](O[C@H]2C[C@@](C)(OC)[C@@H](O)[C@H](C)O2)[C@H](C)[C@@H](O[C@@H]2O[C@H](C)C[C@H](N(C)C)[C@H]2O)[C@](C)(O)C[C@@H](C)CN(C)[C@H](C)[C@@H](O)[C@]1(C)O [Azithromycin] | 109
36 | CCCCCCCCc1ccc(CCC(N)(CO)CO)cc1 [Fingolimod hydrochloride] | 87
37 | OB1OCc2cc(F)ccc21 [Tavaborole] | 91
38 | CC1(C)S[C@@H]2[C@H](NC(=O)[C@H](C(=O)O)c3ccsc3)C(=O)N2[C@H]1C(=O)O [Ticarcillin sodium] | 86
39 | CC1(C)S[C@@H]2[C@H](NC(=O)[C@H](N)c3ccccc3)C(=O)N2[C@H]1C(=O)O [Ampicillin sodium] | 91
40 | Nc1nc(/C(=N/O)C(=O)N[C@@H]2C(=O)N3C(C(=O)O)=C(/C=C4\CCN([C@@H]5CCNC5)C4=O)CS[C@H]23)ns1 [Ceftobiprole] | 107
41 | O=C(O)c1cn(-c2ccc(F)cc2)c2cc(N3CCNCC3)c(F)cc2c1=O [Sarafloxacin] | 109
42 | CO[C@@]1(NC(=O)C(C(=O)O)c2ccc(O)cc2)C(=O)N2C(C(=O)O)=C(CSc3nnnn3C)CO[C@@H]21 (stereo partly drawn) [Latamoxef sodium] | 94
43 | COc1c(N2CCNC(C)C2)c(F)cc2c(=O)c(C(=O)O)cn(C3CC3)c12.Cl (stereo not drawn) [Gatifloxacin hydrochloride] | 104
44 | C[C@@H](O)[C@H]1C(=O)N2C(C(=O)[O-])=C([C@H]3CCCO3)S[C@H]12.[Na+] [Faropenem sodium] | 100
45 | [O-][n+]1ccccc1SSc1cccc[n+]1[O-] [Dipyrithione] | 104
46 | C/C(=C\C(=O)OCCCCCCCCC(=O)O)C[C@@H]1OC[C@H](C[C@@H]2O[C@H]2[C@@H](C)[C@H](C)O)[C@@H](O)[C@H]1O [Mupirocin] | 83
47 | C[C@H]1COc2c(N3CCN(C)CC3)c(F)cc3c(=O)c(C(=O)O)cn1c23 [Levofloxacin Hemihydrate] | 114
48 | Nc1ncn([C@@H]2O[C@H](CO)[C@@H](O)[C@H]2O)c(=O)n1 [5-Azacytidine] | 43
49 | CN(C)[C@@H]1C(O)=C(C(N)=O)C(=O)[C@@]2(O)C(O)=C3C(=O)c4c(O)ccc(Cl)c4[C@@H](O)[C@H]3C[C@@H]12 [Demeclocycline hydrochloride] | 99
50 | NCc1ccccc1CC(=O)N[C@@H]1C(=O)N2C(C(=O)O)=C(CSc3nnnn3CC(=O)O)CS[C@H]12 [Ceforanide] | 94
51 | Cc1c(N)nc([C@H](CC(N)=O)NC[C@H](N)C(N)=O)nc1C(=O)N[C@H](C(=O)N[C@H](C)[C@@H](O)[C@H](C)C(=O)N[C@H](C(=O)NCCc1nc(-c2nc(C(=O)NCCC[S+](C)C)cs2)cs1)[C@@H](C)O)[C@@H](O[C@@H]1O[C@@H](CO)[C@@H](O)[C@H](O)[C@@H]1O[C@H]1O[C@H](CO)[C@@H](O)[C@H](OC(N)=O)[C@@H]1O)c1cnc[nH]1.O=S(=O)([O-])O [Bleomycin Sulfate] | 110
